The results in this text go back to patent US20250084095A1, “Aminopyrimidine Derivatives as Cyclin-Dependent Kinase Inhibitors” (Accutar Biotechnology Inc., priority 2023, published 2025).

One assay deals with 22RV1 cells. Put plainly: Cell growth inhibition of 22RV1 cells (CellTiter-Glo). The note with it: Homo sapiens, 22Rv1, 120 h, 5 days, CellTiter-Glo, read-out: 22RV1 Cell Growh GI50. In kind it is cell-based. The procedure:
For cell growth assay, 22RV1 (ATCC, CRL-2505) cells were seeded in 96-well plates at 1000 cells/well in 90 μl of RPMI1640 growth medium containing 20% FBS and 1% Penicillin Streptomycin, and then incubated at 37° C. overnight. The following day, the test compound was administered to the cells by using 1000× compound stock solution prepared in DMSO at various concentrations. 1000× compound stock solution was first diluted in culturing medium to 10×, then 10 uL compound medium was added to each well in the cell plates. After administration of the compound, the cells were then incubated at 37° C. for 5 days. Upon completion, the plates were equilibrated at room temperature for approximately 10 min. 100 μl of CellTiter-Glo® Reagent (Promega) was added to each well. The plates were then incubated at room temperature for 10 min and luminescence was recorded by EnSpire plate reader (PerkinElmer).
22RV1 cells were obtained from American Type Culture Collection (ATCC, CRL-2505). 22RV1 cells were seeded in 96-well plates at 1000 cells/well in 90 μL of RPMI1640 growth medium containing 10% FBS and 1% Penicillin Streptomycin, and then incubated at 37° C. overnight. The following day, the test compound was administered to the cells by using 1000× compound stock solution prepared in DMSO at various concentrations. […], then 10 uL compound medium was added to each well in the cell plates. After administration of the compound, the cells were then incubated at […] for 5 days. Upon completion, the plates were equilibrated at room temperature for approximately 10 minutes. 100 μL of CellTiter-Glo® Reagent (Promega) was added to each well. The plates were then incubated at room temperature for 10 minutes and luminescence was recorded by EnSpire plate reader (PerkinElmer).
Background: ATP-based viability assays read luminescence as a measure of living cells.

Assay [1] has as its system Phospho-Rb (Ser807/811) in MCF7 cells. Put plainly: Phospho-Rb expression inhibition in MCF7 cells quantified by in cell Western. It counts as cell-based, human. The note with it: Homo sapiens, MCF7, 24 h, 24 hours, in cell Western, read-out: MCF7 pRb IC50. Here is the method: MCF7 cells were obtained from American Type Culture Collection (ATCC, HTB-22). MCF7 cells were plated in 96-well plates (VWR #10062-900, or Coming #3904) in 90 μL culture medium at a density of 20,000 cells/well in the DMEM growth medium containing 10%/FBS and 1% Penicillin Streptomycin, and then incubated at 37° C. overnight. The following day, the test compound was administered to the cells by using 1000× compound stock solution prepared in DMSO at various concentrations. 1000× compound stock solution was first diluted in culturing medium to 10×, then 10 μL compound medium was added to each well in the cell plates. After administration of the compound, the cells were then incubated at 37° C. for 24 h. Upon completion, the cells were washed with PBS briefly. 150 μL/well of 4% formaldehyde was added and the plates were incubated at room temperature for 20 min. The cells were washed with PBS briefly, and permeabilized with 150 µL/well of ice cold 100% methanol for 10 min. The cells were washed with PBS briefly and blocked with 100 µL/well LI-COR blocking buffer for 1 h at room temperature with gentle shaking. The cells were incubated overnight at 4° C. with 50 μL primary antibody rabbit anti-Phospho-Rb (Ser807/811) (1: 500, Cell Signaling, #8516) and anti-Rb (1:200, Santa Cruz, sc-73598) diluted in Intercept Blocking Buffer (LI-COR, #927-60001) containing 0.1% Tween 20. The next day, the cells were washed with 200 μL PBS containing 0.1% Tween 20, 5×5 mins at room temperature with gentle shaking, and incubated with 50 μL secondary antibody, IRDye® 800CW Goat anti-Rabbit IgG (1:1000, LI-COR, #926-32211) and FRDye® 680RD Goat anti-Mouse IgG (1:1000, LI-COR, #926-68070), in LI-COR […] blocking buffer with 0.2% Tween 20 for 1 h at room temperature with gentle shaking. The cells were washed with 200 μL PBS containing 0.1% Tween 20, 5×5 min at room temperature with gentle shaking. The cells were washed with PBS for 5 mins. 100 μL fresh PBS was added to each well and the plates were imaged on a LI-COR Odyssey CLX plate reader.
MCF7 cells were obtained from American Type Culture Collection (ATCC, HTB-22). SW1573-CDK6 KO and SW1573-CDK4 KO cells were generated by the CRISPR-Cas9 technology. All cells were plated in 96-well plates (VWR #10062-900, or Corning #3904) in 90 uL culture medium at a density of 20,000 cells/well in the respective growth medium containing 10% FBS and 1% Penicillin Streptomycin, and then incubated at 37° C. overnight. The following day, the test compound was administered to the cells by using 1000× compound stock solution prepared in DMSO at various concentrations. 1000× compound stock solution was first diluted in culturing medium to 10×, then 10 uL compound medium was added to each well in the cell plates. After administration of the compound, the cells were then incubated at 37° C. for 24 hours. Upon completion, the cells were washed with PBS briefly. 150 uL/well of 4% formaldehyde was added and the plates were incubated at room temperature for 20 mins. The cells were washed with PBS briefly, and permeabilized with 150 uL/well of ice cold 100% methanol for 10 mins. The cells were washed with PBS briefly and blocked with 100 uL/well LI-COR blocking buffer for 1 hr at room temperature with gentle shaking. The cells were incubated overnight at 4° C. with 50 uL primary antibody rabbit anti-Phospho-Rb (Ser807/811) (1: 500, Cell Signaling, #8516) and anti-Rb (1:200, Santa Cruz, sc-73598) diluted in Intercept Blocking Buffer (LI-COR, #927-60001) containing 0.1% Tween 20. The next day, the cells were washed with 200 uL PBS containing 0.1% Tween 20, 5×5 mins at room temperature with gentle shaking, and incubated with 50 uL secondary antibody, IRDye® 800CW Goat anti-Rabbit IgG (1:1000, LI-COR, #926-32211) and IRDye®680RD Goat anti-Mouse IgG (1:1000, LI-COR, #926-68070), in LI-COR blocking buffer with 0.2% Tween 20 for 1 hr at room temperature with gentle shaking. […]

Some results are limits rather than exact numbers.

One may read the GI50 as the concentration giving 50% growth inhibition. For the molecule `[2H][C@H]1[C@@H](Nc2ncc(Cl)c(-c3cc(F)c4nc(C(C)(C)O)n(C(C)C)c4c3)n2)[C@H](O)[C@@H]2OC[C@H]1O2` [Compound 2, (1S,2S,3R,4S,5R)-3-((5-chloro-4-(4-fluoro-2-(2-hydroxypropan-2-yl)-1-isopropyl-1H-benzo[d]imidazol-6-yl)pyrimidin-2-yl)amino)-6,8-dioxabicyclo[3.2.1]octan-2-d-4-ol], the GI50 with 22RV1 cells is at most 120 nM.

The IC50 is the concentration needed to halve the response being measured. Regarding `COC(=O)N1CC[C@@H](c2nc3c(F)cc(-c4nc(N[C@@H]5C[C@H]6CO[C@H](O6)[C@H]5O)ncc4Cl)cc3n2C(C)C)C1` [Compound 4, methyl (R)-3-(6-(5-chloro-2-(((1S,3R,4S,5R)-4-hydroxy-6,8-dioxabicyclo[3.2.1]octan-3-yl)amino)pyrimidin-4-yl)-4-fluoro-1-isopropyl-1H-benzo[d]imidazol-2-yl)pyrrolidine-1-carboxylate], in assay [1], the IC50 is 40 to 150 nM. In addition, the GI50 in the assay with 22RV1 cells was 120 to 450 nM.

For the molecule `CC(C)n1c([C@@H]2CCC(F)(F)C2)nc2c(F)cc(-c3nc(N[C@@H]4C[C@H]5CO[C@H](O5)[C@H]4O)ncc3Cl)cc21` [Compound 5, (1S,3R,4S,5R)-3-((5-chloro-4-(2-((R)-3,3-difluorocyclopentyl)-4-fluoro-1-isopropyl-1H-benzo[d]imidazol-6-yl)pyrimidin-2-yl)amino)-6,8-dioxabicyclo[3.2.1]octan-4-ol], the 50% inhibitory concentration (IC50) in assay [1] lay within 150 to 1000 nM. The GI50 in the assay on 22RV1 cells fell in the range of 120 to 450 nM.

For `CC(C)n1c(C(C)(C)O)nc2c(F)cc(-c3nc(N[C@@H]4[C@H](C)[C@H]5CO[C@H](O5)[C@H]4O)ncc3Cl)cc21` [Compound 13, (1S,2S,3R,4S,5R)-3-((5-chloro-4-(4-fluoro-2-(2-hydroxypropan-2-yl)-1-isopropyl-1H-benzo[d]imidazol-6-yl)pyrimidin-2-yl)amino)-2-methyl-6,8-dioxabicyclo[3.2.1]octan-4-ol], the IC50 in assay [1] was in the range of 40 to 150 nM. The GI50 with 22RV1 cells lay in the range of 120 to 450 nM.

Turning to `COC(=O)N1CC[C@@H](c2nc3c(F)cc(-c4nc(N[C@@H]5[C@H](C)[C@H]6CO[C@H](O6)[C@H]5O)ncc4Cl)cc3n2C(C)C)C1` [Compound 23, methyl (R)-3-(6-(5-chloro-2-(((1S,2S,3R,4S,5R)-4-hydroxy-2-methyl-6,8-dioxabicyclo[3.2.1]octan-3-yl)amino)pyrimidin-4-yl)-4-fluoro-1-isopropyl-1H-benzo[d]imidazol-2-yl)pyrrolidine-1-carboxylate], in assay [1], the concentration for half-maximal inhibition (IC50) lay within 40 to 150 nM. Moreover, in the assay with 22RV1 cells, the GI50 was 120 to 450 nM.

Consider `CC(C)n1c(C(C)(C)O)c(C#N)c2c(F)cc(-c3nc(N[C@@H]4C[C@H]5CO[C@H](O5)[C@H]4O)ncc3Cl)cc21` [Compound 26, 6-(5-chloro-2-(((1S,3R,4S,5R)-4-hydroxy-6,8-dioxabicyclo[3.2.1]octan-3-yl)amino)pyrimidin-4-yl)-4-fluoro-2-(2-hydroxypropan-2-yl)-1-isopropyl-1H-indole-3-carbonitrile], for which the IC50 in assay [1] lay in the range of 40 to 150 nM. Moreover, the GI50 in the assay with 22RV1 cells is at most 120 nM.

Consider `CC(C)n1c(C(C)(C)O)nc2c(F)cc(-c3nc(N[C@@H]4C[C@H]5CO[C@H](O5)[C@H]4O)ncc3F)cc21` [Compound 27, (1S,3R,4S,5R)-3-((5-fluoro-4-(4-fluoro-2-(2-hydroxypropan-2-yl)-1-isopropyl-1H-benzo[d]imidazol-6-yl)pyrimidin-2-yl)amino)-6,8-dioxabicyclo[3.2.1]octan-4-ol], for which the IC50 in assay [1] was 40 to 150 nM. Also, the GI50 in the assay on 22RV1 cells lay within 120 to 450 nM.

Take `CC(C)n1c(C(C)(C)O)nc2c(F)cc(-c3nc(N[C@@H]4C[C@H]5CO[C@H](O5)[C@H]4O)ncc3C(F)F)cc21` [Compound 29, (1S,3R,4S,5R)-3-((5-(difluoromethyl)-4-(4-fluoro-2-(2-hydroxypropan-2-yl)-1-isopropyl-1H-benzo[d]imidazol-6-yl)pyrimidin-2-yl)amino)-6,8-dioxabicyclo[3.2.1]octan-4-ol]: the IC50 in assay [1] lay within 150 to 1000 nM. Moreover, the GI50 in the assay on 22RV1 cells is 450 to 3000 nM.

With `CC1=Nc2c(F)cc(-c3nc(N[C@@H]4C[C@H]5CO[C@H](O5)[C@H]4O)ncc3Cl)cc2C12CCCC2` [Compound 32, (1S,3R,4S,5R)-3-((5-chloro-4-(7′-fluoro-2′-methylspiro[cyclopentane-1,3′-indol]-5′-yl)pyrimidin-2-yl)amino)-6,8-dioxabicyclo[3.2.1]octan-4-ol], the IC50 in assay [1] was at most 40 nM. In addition, in the assay with 22RV1 cells, the GI50 is at most 120 nM.

Regarding `CC(C)(O)C1=Nc2c(F)cc(-c3nc(N[C@@H]4C[C@H]5CO[C@H](O5)[C@H]4O)ncc3Cl)cc2C12CCCC2` [Compound 33, (1S,3R,4S,5R)-3-((5-chloro-4-(7′-fluoro-2′-(2-hydroxypropan-2-yl)spiro[cyclopentane-1,3′-indol]-5′-yl)pyrimidin-2-yl)amino)-6,8-dioxabicyclo[3.2.1]octan-4-ol], the IC50 in assay [1] fell in the range of 40 to 150 nM. In addition, the 50% growth inhibitory concentration (GI50) with 22RV1 cells fell in the range of 120 to 450 nM.

Take `C[C@H]1COc2c(-c3nc(N[C@@H]4C[C@H]5CO[C@H](O5)[C@H]4O)ncc3Cl)cc(F)c3nc(C(C)(C)O)n1c23` [Compound 37, (1S,3R,4S,5R)-3-((5-chloro-4-((S)-8-fluoro-2-(2-hydroxypropan-2-yl)-3-methyl-3,4-dihydro-5-oxa-1,2a-diazaacenaphthylen-6-yl)pyrimidin-2-yl)amino)-6,8-dioxabicyclo[3.2.1]octan-4-ol]: in assay [1], the IC50 lay within 40 to 150 nM. For the same molecule, the GI50 in the assay on 22RV1 cells is 120 to 450 nM.

In the case of `C[C@@H]1COc2c(-c3nc(N[C@@H]4C[C@H]5CO[C@H](O5)[C@H]4O)ncc3Cl)cc(F)c3nc(C(C)(C)O)n1c23` [Compound 38, (1S,3R,4S,5R)-3-((5-chloro-4-((R)-8-fluoro-2-(2-hydroxypropan-2-yl)-3-methyl-3,4-dihydro-5-oxa-1,2a-diazaacenaphthylen-6-yl)pyrimidin-2-yl)amino)-6,8-dioxabicyclo[3.2.1]octan-4-ol], the IC50 in assay [1] is at most 40 nM. Further, in the assay with 22RV1 cells, the GI50 was 120 to 450 nM.
